Test results reported in US20150141506A1, “INDANE DIMERS FOR USE IN THE TREATMENT OF AUTOIMMUNE INFLAMMATORY DISEASE” (Venantius Limited, priority 2012, published 2015).
“Also recorded” adds a separate entry of the source.

Legend:
[1] = test system: 5% DSS colitis in BALB/c mice; experiment: Acute murine 5% DSS colitis model, Experiment 1; assay type: in vivo; details: for activity in 5% DSS murine colitis (DAI), in words: 30 mg/kg p.o. daily for 7 days
Excerpt: The study is widely used as a model for studying the pathogenesis of UC and also for screening new therapeutic interventions for the treatment of UC.
In these studies, an acute colitis model was used, with 5% DSS administered in the drinking water of BALB/c mice. This dosage regime induces severe acute colitis, by days 7-8 mice had overt rectal bleeding and marked weight loss; unless sacrificed beforehand, all mice would have died by days 10-12.
Specific Pathogen-Free BALB/c mice, 6-8 weeks of age, were obtained from a commercial supplier (Harlan UK). Mice were fed irradiated diet and housed in individually ventilated cages (Tecniplast UK) under positive pressure.
DSS (5%) was dissolved in drinking water. Compounds were administered orally at a dose of 10 mg/kg or 30 mg/kg on days 0-7, and mice were culled on day 8 or day 9, depending on the severity of the disease. The mice were checked each day for morbidity and the weight of individual mice was recorded. Induction of colitis was determined upon autopsy, length of colon and histology. Colons were recovered and stored at −20° C. for immunological analysis. All of the compounds and experimental groups are randomly alphabetically labelled. Throughout experiments all data recording was performed in a blind manner. The codes on boxes/groups were not broken until after the data was analysed i.e. boxes labelled A, B, C etc were identified as untreated, DSS-treated, or DSS+compound-treated.
To quantify the extent of colitis, a disease activity index (DAI) was determined based on weight loss, faecal blood and stool consistency. A score was given for each parameter, with the sum of the scores used as the DAI. For each treatment group n=8.
All compounds were prepared for oral gavage (0.1 mL per os (p.o.) per 10 g body weight) as a suspension in 0.5% carboxymethyl cellulose/2% Tween 80, at a dose of 3-30 mg/Kg.

[2] = Solubility in Milli-RO water and pH buffers; assay type: physicochemical; details: free acid enantiomers
Procedure: The sodium salt, potassium salt, calcium salt, α-methylbenzylamine salt and N-Methyl-(D)-Glucamine salt were synthesised.
The solubility of the four compounds were determined: […]

[3] = test system: IL2 release from Jurkat cells; experiment: Effect of compounds on IL-2 secretion in T lymphocytes (Jurkat 6.1, anti-CD3/anti-CD28 stimulated, ELISA); assay type: cell-based; details: for IL-2 production, absolute values: 30 min pre-treatment, DMSO control 320.67 (plate 2), 338.25 (plate 3); for IL-2 production, absolute values / activity at 1 µM / activity at 10 µM: 24 h; for effect on IL2 release, in words: 1 and 10 μM; for activity at 1 µM / activity at 10 µM: Homo sapiens, Jurkat, read-out: IL2 release as percentage of anti-CD3/CD28 stimulated release in presence of DMSO, Mean
Procedure: The T cell line Jurkat 6.1 (ATCC) was used. Cells were pre-treated for 30 min with 1 μM or 10 μM of the respective compound and then stimulated with plate-bound anti-CD3 (BD Pharmingen) and anti-CD28 (AnCell). DMSO was used as vehicle control. […] After 24 hs the supernatant was collected and IL-2 secretion was measured by ELISA.
Compounds were prepared by dissolution in DMSO to yield final concentrations of 1 and 10 μg/ml

[4] = day 7, 30 mg/kg p.o. daily for 7 days, vehicle 9.0±0.53

SMILES | IL-2 production, absolute values ([3]; compound 1 uM) | IL-2 production, absolute values ([3]; compound 10 uM) | activity at 1 µM [3] | activity at 10 µM [3] | also measured
O=C(O)c1ccc(C[C@@]2(C3=Cc4ccccc4C3)Cc3ccccc3[C@H]2O)cc1 (single isomer, unassigned) [Compound 2] | 98.71 pg/mL | 124.36 pg/mL |  |  | activity in 5% DSS murine colitis (DAI), in words [1]: highly active; potency compared among the four enantiomers, in words ([1]; 30 and 10 mg/kg): most potent of the four enantiomers; disease activity index (DAI) ([1]; day 7, 10 mg/kg daily for 7 days, vehicle 9.3±0.51): 2.1±0.7; disease activity index (DAI) [1, 4]: 2.5±0.71; aqueous solubility, in words [2]: limited aqueous solubility
O=C(O)c1ccc(C[C@]2(C3=Cc4ccccc4C3)Cc3ccccc3[C@@H]2O)cc1 (single isomer, unassigned) [Compound 3] | 150.07 pg/mL | 98.57 pg/mL |  |  | activity in 5% DSS murine colitis (DAI), in words [1]: minimal activity; disease activity index (DAI) [1, 4]: 5.3±0.6
O=C(O)c1ccc(C[C@@]2(C3=Cc4ccccc4C3)Cc3ccccc3[C@@H]2O)cc1 [Compound 4, 4-(((1R,2S)-1-hydroxy-2,3-dihydro-1H,1′H-2,2′-biinden-2-yl)methyl)benzoic acid] | 97.21 pg/mL | 94.21 pg/mL |  |  | activity in 5% DSS murine colitis (DAI), in words [1]: without activity; also recorded: almost devoid of activity
CC(C)C[C@H](N)C(=O)O[C@H]1c2ccccc2C[C@]1(Cc1ccc(C(N)=O)cc1)C1=Cc2ccccc2C1 [Compound 35, (1R,2R)-2-(4-carbamoylbenzyl)-2,3-dihydro-1H,1′H-2,2′-biinden-1-yl L-leucinate] | 238.88 pg/mL | 189.38 pg/mL | 149% | 95.5% | effect on IL2 release, in words [3]: inactive
CC(C)C[C@H](N)C(=O)O[C@H]1c2ccccc2C[C@]1(Cc1ccc(C(=O)NCCO)cc1)C1=Cc2ccccc2C1 [Compound 36, (1R,2R)-2-{4-[(2-hydroxyethyl)carbamoyl]benzyl}-2,3-dihydro-1H,1′H-2,2′-biinden-1-yl L-leucinate] | 207.38 pg/mL | 138.13 pg/mL | 96% | 56.3% | 
CNC(=O)c1ccc(C[C@]2(C3=Cc4ccccc4C3)Cc3ccccc3[C@@H]2OC(=O)[C@@H](N)CC(C)C)cc1 [Compound 37, (1R,2R)-2-[4-(methylcarbamoyl)benzyl]-2,3-dihydro-1H,1′H-2,2′-biinden-1-yl L-leucinate] | 275.50 pg/mL | 79.00 pg/mL | 99.2% | 50.2% | 
CC(C)C[C@H](N)C(=O)O[C@H]1c2ccccc2C[C@]1(Cc1ccc(C(=O)N(C)C)cc1)C1=Cc2ccccc2C1 [Compound 38, (1R,2R)-2-[4-(dimethylcarbamoyl)benzyl]-2,3-dihydro-1H,1′H-2,2′-biinden-1-yl L-leucinate] | 226.75 pg/mL | 268.63 pg/mL | 107% | 62.7% | effect on IL2 release, in words [3]: inactive
COC(=O)c1ccc(C[C@@]2(C3=Cc4ccccc4C3)Cc3ccccc3[C@H]2OC(=O)[C@@H](N)CC(C)C)cc1 [Compound 39, methyl 4-(((1S,2S)-1-(((S)-2-amino-4-methylpentanoyl)oxy)-2,3-dihydro-1H,1′H-[2,2′-biinden]-2-yl)methyl)benzoate] | 105.94 pg/mL | 40.69 pg/mL | 73.7% | 21.7% | 
CCOC(=O)c1ccc(C[C@@]2(C3=Cc4ccccc4C3)Cc3ccccc3[C@H]2OC(=O)[C@@H](N)CC(C)C)cc1 [Compound 40, ethyl 4-(((1S,2S)-1-(((S)-2-amino-4-methylpentanoyl)oxy)-2,3-dihydro-1H,1′H-[2,2′-biinden]-2-yl)methyl)benzoate] | 84.86 pg/mL | 12.71 pg/mL | 82.6% | 20.9% | 
CCCOC(=O)c1ccc(C[C@@]2(C3=Cc4ccccc4C3)Cc3ccccc3[C@H]2OC(=O)[C@@H](N)CC(C)C)cc1 [Compound 41, propyl 4-(((1S,2S)-1-(((S)-2-amino-4-methylpentanoyl)oxy)-2,3-dihydro-1H, 1′H-[2,2′-biinden]-2-yl)methyl)benzoate] | 99.50 pg/mL | 62.50 pg/mL | 77% | 42.1% | 
CC(C)C[C@H](N)C(=O)O[C@@H]1c2ccccc2C[C@@]1(Cc1ccc(C(N)=O)cc1)C1=Cc2ccccc2C1 [Compound 42, (1S,2S)-2-(4-carbamoylbenzyl)-2,3-dihydro-1H,1′H-2,2′-biinden-1-yl L-leucinate] | 77.71 pg/mL | 49.57 pg/mL | 76.1% | 30% | 
CC(C)C[C@H](N)C(=O)O[C@@H]1c2ccccc2C[C@@]1(Cc1ccc(C(=O)NCCO)cc1)C1=Cc2ccccc2C1 [Compound 43, (1S,2S)-2-{4-[(2-Hydroxyethyl)carbamoyl]benzyl}-2,3-dihydro-1H,1′H-2,2′-biinden-1-yl leucinate] | 97.57 pg/mL | 12.79 pg/mL | 72.4% | 8.4% | effect on IL2 release, in words [3]: greatest inhibition of IL2 release
CNC(=O)c1ccc(C[C@@]2(C3=Cc4ccccc4C3)Cc3ccccc3[C@H]2OC(=O)[C@@H](N)CC(C)C)cc1 [Compound 44, (1S,2S)-2-[4-(methylcarbamoyl)benzyl]-2,3-dihydro-1H,1′H-2,2′-biinden-1-yl L-leucinate] | 72.50 pg/mL | 12.43 pg/mL | 76.2% | 21% | 
CC(C)C[C@H](N)C(=O)O[C@@H]1c2ccccc2C[C@@]1(Cc1ccc(C(=O)N(C)C)cc1)C1=Cc2ccccc2C1 [Compound 45, (1S,2S)-2-[4-(dimethylcarbamoyl)benzyl]-2,3-dihydro-1H,1′H-2,2′-biinden-1-yl L-leucinate] | 56.07 pg/mL | 14.29 pg/mL | 51.5% | 1.5% | effect on IL2 release, in words [3]: greatest inhibition of IL2 release
O=C(Nc1ccc(O)c(C(=O)O)c1)c1ccc(C[C@]2(C3=Cc4ccccc4C3)Cc3ccccc3[C@@H]2O)cc1 [Compound 46, 2-hydroxy-5-(4-(((1R,2R)-1-hydroxy-2,3-dihydro-1H,1′H-[2,2′-biinden]-2-yl)methyl)benzamido)benzoic acid] | 92.21 pg/mL | 72.07 pg/mL |  |  | 
C[C@]12C=CC(=O)C=C1CC[C@@H]1[C@@H]2[C@@H](O)C[C@@]2(C)[C@H]1CC[C@]2(O)C(=O)CO [Prednisolone, reference compound] |  |  |  |  | DAI on the day of autopsy versus vehicle controls ([1]; 5 mg/kg): reduced DAI scores; colon cytokine levels (IL1β, TNFα, IL6) ([1]; day 7, Prednisolone 5 mg/kg): reduced (p<0.05); inhibition of colon shortening versus vehicle controls ([1]; day 7, Prednisolone 5 mg/kg): did have a significant effect; reduction of colonic myeloperoxidase (MPO) activity ([1]; day 7, Prednisolone 5 mg/kg): 54%; colon pathology (histology score) relative to vehicle ([1]; prednisolone 5 mg/Kg): no significant improvement
